From patent publication US9433621B2, “Substituted pyridine and pyrimidine derivatives and their use in treating viral infections” (Merck Sharp & Dohme Corp., priority 2010, dated 2016)

System: HCV replicon
Experiment: Cell-Based HCV Replicon Assay
Details: HCV Replicon assay, EC90 range, Table VI; read-out: EC90
Method in brief: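 EC50 and EC90 taken from sigmoid fits of ΔCT (5B minus GAPDH) as the concentrations raising ΔCT by 1 and 3.2 over baseline, via multiplex real-time RT-PCR on lysates after 3 days. Replicon cells at 5000/well; 10 two-fold dilutions from 25–1 μM, 0.5% DMSO, 10% FBS.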

SMILES	EC90 [nM]
Cc1nc(NC(C)C2CC(F)(F)C2)nc(N[C@@H]2C[C@H](CO)[C@@H](O)[C@H]2O)c1-c1nc2c(C)nccc2s1 (stereo partly drawn) [Example 5308]	< 500

Same assay, conditions: Hepatitis C virus, 72 h; Table IV; replicon cells, day 3, real time PCR; EC90 = concentration for ΔCT=3.2 over baseline; read-out: EC90

SMILES	EC90 [nM]
Cc1ccc([C@@H](C)Nc2nc(C)c(-c3nc4c(C)nccc4s3)c(N[C@@H]3C[C@H](CO)[C@@H](O)[C@@]3(C)O)n2)cc1 [compound 3815]	30

Same assay, conditions: Hepatitis C virus; HCV Replicon assay, EC90 given as numeric bound, Table VI; read-out: EC90

SMILES	EC90 [nM]
Cc1nc(NCC2(N(C)C)CCOCC2)nc(N[C@@H]2C[C@H](C(C)(C)O)[C@@H](O)[C@H]2O)c1-c1nc2c(C)nccc2s1 [Example 5282]	> 1000

Same assay, conditions: Hepatitis C virus; HCV Replicon assay, EC90 range, Table VI; read-out: EC90

SMILES	EC90 [nM]
COC[C@@H](C)Nc1nc(C)c(-c2nc3c(C)nccc3s2)c(N[C@@H]2C[C@H](C(C)(C)O)[C@@H](OC)[C@H]2OC)n1 [Example 5263]	< 500
CO[C@@H]1[C@H](OC)[C@@H](C(C)(C)O)C[C@H]1Nc1nc(NC[C@@H](C)OC)nc(C)c1-c1nc2c(C)nccc2s1 [Example 5264]	< 500
CO[C@@H]1[C@H](OC)[C@@H](C(C)(C)O)C[C@H]1Nc1nc(NCC2CC2)nc(C)c1-c1nc2c(C)nccc2s1 [Example 5265]	< 500
CO[C@@H]1[C@H](OC)[C@@H](C(C)(C)O)C[C@H]1Nc1nc(NCc2c(F)cc(F)cc2F)nc(C)c1-c1nc2c(C)nccc2s1 [Example 5266]	< 500
CCSCCNc1nc(C)c(-c2nc3c(C)nccc3s2)c(N[C@@H]2C[C@H](C(C)(C)O)[C@@H](OC)[C@H]2OC)n1 [Example 5267]	< 500
CO[C@@H]1[C@H](OC)[C@@H](C(C)(C)O)C[C@H]1Nc1nc(N)nc(C)c1-c1nc2c(C)nccc2s1 [Example 5268]	< 500
CCC(O)(CC)[C@H]1C[C@@H](Nc2nc(NCCC3CC3)nc(C)c2-c2nc3c(C)nccc3s2)[C@H](O)[C@@H]1O [Example 5269]	500 to 5000
CCC(O)(CC)[C@H]1C[C@@H](Nc2nc(NCC3(C)CC3)nc(C)c2-c2nc3c(C)nccc3s2)[C@H](O)[C@@H]1O [Example 5270]	< 500
CCC(O)(CC)[C@H]1C[C@@H](Nc2nc(NC3CCOCC3)nc(C)c2-c2nc3c(C)nccc3s2)[C@H](O)[C@@H]1O [Example 5271]	< 500
CCCCCNc1nc(C)c(-c2nc3c(C)nccc3s2)c(N[C@@H]2C[C@H](C(O)(CC)CC)[C@@H](O)[C@H]2O)n1 [Example 5272]	< 500
CCC(O)(CC)[C@H]1C[C@@H](Nc2nc(N)nc(C)c2-c2nc3c(C)nccc3s2)[C@H](O)[C@@H]1O [Example 5273]	< 500
COC[C@@H](C)Nc1nc(C)c(-c2nc3c(C)nccc3s2)c(N[C@@H]2C[C@H](C(C)(C)OC)[C@@H](O)[C@H]2O)n1 [Example 5274]	< 500
CO[C@H](C)CNc1nc(C)c(-c2nc3c(C)nccc3s2)c(N[C@@H]2C[C@H](C(C)(C)OC)[C@@H](O)[C@H]2O)n1 [Example 5275]	< 500
COC(C)(C)[C@H]1C[C@@H](Nc2nc(NCC3CC3)nc(C)c2-c2nc3c(C)nccc3s2)[C@H](O)[C@@H]1O [Example 5276]	< 500
COC(C)(C)[C@H]1C[C@@H](Nc2nc(NCc3c(F)cc(F)cc3F)nc(C)c2-c2nc3c(C)nccc3s2)[C@H](O)[C@@H]1O [Example 5277]	< 500
CCSCCNc1nc(C)c(-c2nc3c(C)nccc3s2)c(N[C@@H]2C[C@H](C(C)(C)OC)[C@@H](O)[C@H]2O)n1 [Example 5278]	< 500
COC(C)(C)[C@H]1C[C@@H](Nc2nc(N)nc(C)c2-c2nc3c(C)nccc3s2)[C@H](O)[C@@H]1O [Example 5279]	< 500
Cc1nc(NCCSc2ccccc2)nc(N[C@@H]2C[C@H](C(C)(C)O)[C@@H](O)[C@H]2O)c1-c1nc2c(C)nccc2s1 [Example 5280]	< 500
Cc1nc(NCCS(N)(=O)=O)nc(N[C@@H]2C[C@H](C(C)(C)O)[C@@H](O)[C@H]2O)c1-c1nc2c(C)nccc2s1 [Example 5281]	500 to 5000
COC[C@@H](C)Nc1nc(C)c(-c2nc3c(C)nccc3s2)c(N[C@@H]2C[C@H](C(C)C)[C@@H](O)[C@H]2O)n1 [Example 5283]	< 500
Cc1nc(NCC2CC2)nc(N[C@@H]2C[C@H](C(C)C)[C@@H](O)[C@H]2O)c1-c1nc2c(C)nccc2s1 [Example 5284]	< 500
Cc1nc(NC2CC2)nc(N[C@@H]2C[C@H](C(C)C)[C@@H](O)[C@H]2O)c1-c1nc2c(C)nccc2s1 [Example 5285]	< 500
Cc1nc(N)nc(N[C@@H]2C[C@H](C(C)C)[C@@H](O)[C@H]2O)c1-c1nc2c(C)nccc2s1 [Example 5286]	< 500
COCCC1(CNc2nc(C)c(-c3nc4c(C)nccc4s3)c(N[C@@H]3C[C@H](C(C)(C)O)[C@@H](O)[C@H]3O)n2)CCOCC1 [Example 5287]	< 500

SMILES	EC90 [nM]
Cc1nc(NCCS(=O)(=O)N(C)C)nc(N[C@@H]2C[C@H](C(C)(C)O)[C@@H](O)[C@H]2O)c1-c1nc2c(C)nccc2s1 [Example 5288]	< 500
Cc1nc(NCCS(=O)(=O)NC(C)(C)C)nc(N[C@@H]2C[C@H](C(C)(C)O)[C@@H](O)[C@H]2O)c1-c1nc2c(C)nccc2s1 [Example 5289]	< 500
Cc1nc(NCC2CC2)nc(N[C@@H]2C[C@H](Cc3nccs3)[C@@H](O)[C@H]2O)c1-c1nc2cnccc2s1 [Example 5290]	< 500
Cc1nc(NC(C)C2CC(F)(F)C2)nc(N[C@@H]2C[C@H](CO)[C@@H](O)[C@H]2O)c1-c1nc2c(C)nccc2s1 (stereo partly drawn) [Example 5291]	< 500
CO[C@H]1C[C@@H](CNc2nc(C)c(-c3nc4c(C5CC5)nccc4s3)c(N[C@@H]3C[C@H](CO)[C@@H](O)[C@H]3O)n2)C1 [Example 5292]	< 500
CCO[C@H]1C[C@@H](CNc2nc(C)c(-c3nc4c(C5CC5)nccc4s3)c(N[C@@H]3C[C@H](CO)[C@@H](O)[C@H]3O)n2)C1 [Example 5293]	< 500
Cc1nc(NCC2CC(C)C2)nc(N[C@@H]2C[C@H](CO)[C@@H](O)[C@H]2O)c1-c1nc2c(C3CC3)nccc2s1 (stereo partly drawn) [Example 5294]	< 500
Cc1nc(NCC2CC2)nc(N[C@@H]2C[C@H](c3nccs3)[C@@H](O)[C@H]2O)c1-c1nc2c(C)nccc2s1 [Example 5295]	< 500
CO[C@H]1C[C@H](CNc2nc(C)c(-c3nc4c(C5CC5)nccc4s3)c(N[C@@H]3C[C@H](CO)[C@@H](O)[C@H]3O)n2)C1 [Example 5296]	< 500
Cc1nc(NCC2CC(F)(F)C2)nc(N[C@@H]2C[C@H](CO)C(O)[C@H]2O)c1-c1nc2c(C3CC3)nccc2s1 (stereo partly drawn) [Example 5297]	< 500
CCO[C@H]1C[C@H](CNc2nc(C)c(-c3nc4c(C5CC5)nccc4s3)c(N[C@@H]3C[C@H](CO)[C@@H](O)[C@H]3O)n2)C1 [Example 5298]	< 500
CO[C@H]1C[C@@H]([C@@H](C)Nc2nc(C)c(-c3nc4c(C5CC5)nccc4s3)c(N[C@@H]3C[C@H](CO)[C@@H](O)[C@H]3O)n2)C1 [Example 5299]	< 500
Cc1nc(NC(C)C2CC(F)(F)C2)nc(N[C@@H]2C[C@H](CO)C(O)[C@H]2O)c1-c1nc2c(C3CC3)nccc2s1 (stereo partly drawn) [Example 5300]	< 500
Cc1nc(NCC2CC3(CC3)C2)nc(N[C@@H]2C[C@H](CO)[C@@H](O)[C@H]2O)c1-c1nc2c(C3CC3)nccc2s1 [Example 5301]	< 500
CO[C@H]1C[C@H]([C@@H](C)Nc2nc(C)c(-c3nc4c(C)nccc4s3)c(N[C@@H]3C[C@H](CO)[C@@H](O)[C@H]3O)n2)C1 [Example 5302]	< 500
CO[C@H]1C[C@H]([C@@H](C)Nc2nc(C)c(-c3nc4c(C5CC5)nccc4s3)c(N[C@@H]3C[C@H](CO)[C@@H](O)[C@H]3O)n2)C1 [Example 5303]	< 500
Cc1nc(N)nc(N[C@@H]2C[C@H](CC(C)(C)O)[C@@H](O)[C@H]2O)c1-c1nc2c(C)nccc2s1 [Example 5304]	< 500
Cc1nc(NC(C)C2CC(F)(F)C2)nc(N[C@@H]2C[C@H](CO)[C@@H](O)[C@H]2O)c1-c1nc2c(C3CC3)nccc2s1 (stereo partly drawn) [Example 5305]	500 to 5000
CCO[C@H]1C[C@H](CNc2nc(C)c(-c3nc4c(C)nccc4s3)c(N[C@@H]3C[C@H](CC(C)(C)O)[C@@H](O)[C@H]3O)n2)C1 [Example 5306]	< 500
COCCNc1nc(C)c(-c2nc3c(C)nccc3s2)c(N[C@@H]2C[C@H](CC(C)(C)O)[C@@H](O)[C@H]2O)n1 [Example 5307]	< 500
Cc1nc(NCCSC(C)(C)C)nc(N[C@@H]2C[C@H](CC(C)(C)O)[C@@H](O)[C@H]2O)c1-c1nc2c(C)nccc2s1 [Example 5309]	< 500
COC[C@@H](C)Nc1nc(C)c(-c2nc3c(C)nccc3s2)c(N[C@@H]2C[C@H](CC(C)(C)O)[C@@H](O)[C@H]2O)n1 [Example 5310]	< 500
CO[C@H](C)CNc1nc(C)c(-c2nc3c(C)nccc3s2)c(N[C@@H]2C[C@H](CC(C)(C)O)[C@@H](O)[C@H]2O)n1 [Example 5311]	< 500
Cc1nc(NCC2CC(F)(F)C2)nc(N[C@@H]2C[C@H](CC(C)(C)O)[C@@H](O)[C@H]2O)c1-c1nc2c(C)nccc2s1 [Example 5312]	< 500
